Assay results as given in ChEMBL document CHEMBL5291721, “A preclinical secondary pharmacology resource illuminates target-adverse drug reaction associations of marketed drugs” (Nat Commun, 2023).

Experiments:
[1] = molecular target: T1, Peroxisome proliferator-activated receptor alpha (Homo sapiens, UniProt Q07869); assay type: functional
T1 sequence (Q07869 whole entry): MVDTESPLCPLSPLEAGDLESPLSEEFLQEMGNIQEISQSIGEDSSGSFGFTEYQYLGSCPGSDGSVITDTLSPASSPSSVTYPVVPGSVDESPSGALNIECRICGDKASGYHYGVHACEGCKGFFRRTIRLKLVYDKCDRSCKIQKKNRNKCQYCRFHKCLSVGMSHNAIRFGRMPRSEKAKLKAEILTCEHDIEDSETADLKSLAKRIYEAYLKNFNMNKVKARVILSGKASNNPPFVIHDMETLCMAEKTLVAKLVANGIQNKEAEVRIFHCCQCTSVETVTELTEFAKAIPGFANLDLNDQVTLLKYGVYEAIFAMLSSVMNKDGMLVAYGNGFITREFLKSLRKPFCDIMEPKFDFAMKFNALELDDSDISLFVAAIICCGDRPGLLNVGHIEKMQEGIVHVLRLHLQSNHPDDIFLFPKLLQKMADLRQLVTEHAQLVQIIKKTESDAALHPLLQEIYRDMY

D(1A) dopamine receptor [2] = molecular target: T2, D(1A) dopamine receptor (Homo sapiens, UniProt P21728); assay type: functional, cell-based
T2 sequence (P21728 whole entry): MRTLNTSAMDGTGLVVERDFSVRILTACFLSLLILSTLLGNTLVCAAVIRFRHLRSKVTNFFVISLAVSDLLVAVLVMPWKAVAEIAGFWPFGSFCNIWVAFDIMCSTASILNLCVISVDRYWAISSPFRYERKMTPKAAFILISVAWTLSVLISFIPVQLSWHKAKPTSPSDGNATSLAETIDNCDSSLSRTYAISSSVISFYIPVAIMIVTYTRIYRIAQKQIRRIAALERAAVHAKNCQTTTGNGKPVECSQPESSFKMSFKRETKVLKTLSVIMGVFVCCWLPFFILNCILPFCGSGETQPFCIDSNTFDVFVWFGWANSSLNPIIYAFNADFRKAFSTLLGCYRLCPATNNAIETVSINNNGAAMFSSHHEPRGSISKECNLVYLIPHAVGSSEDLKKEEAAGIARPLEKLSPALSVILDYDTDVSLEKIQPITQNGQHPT

[3] = molecular target: cGMP-inhibited 3',5'-cyclic phosphodiesterase 3A (Homo sapiens, UniProt Q14432); assay type: functional
Chain of cGMP-inhibited 3',5'-cyclic phosphodiesterase 3A (Q14432 whole entry): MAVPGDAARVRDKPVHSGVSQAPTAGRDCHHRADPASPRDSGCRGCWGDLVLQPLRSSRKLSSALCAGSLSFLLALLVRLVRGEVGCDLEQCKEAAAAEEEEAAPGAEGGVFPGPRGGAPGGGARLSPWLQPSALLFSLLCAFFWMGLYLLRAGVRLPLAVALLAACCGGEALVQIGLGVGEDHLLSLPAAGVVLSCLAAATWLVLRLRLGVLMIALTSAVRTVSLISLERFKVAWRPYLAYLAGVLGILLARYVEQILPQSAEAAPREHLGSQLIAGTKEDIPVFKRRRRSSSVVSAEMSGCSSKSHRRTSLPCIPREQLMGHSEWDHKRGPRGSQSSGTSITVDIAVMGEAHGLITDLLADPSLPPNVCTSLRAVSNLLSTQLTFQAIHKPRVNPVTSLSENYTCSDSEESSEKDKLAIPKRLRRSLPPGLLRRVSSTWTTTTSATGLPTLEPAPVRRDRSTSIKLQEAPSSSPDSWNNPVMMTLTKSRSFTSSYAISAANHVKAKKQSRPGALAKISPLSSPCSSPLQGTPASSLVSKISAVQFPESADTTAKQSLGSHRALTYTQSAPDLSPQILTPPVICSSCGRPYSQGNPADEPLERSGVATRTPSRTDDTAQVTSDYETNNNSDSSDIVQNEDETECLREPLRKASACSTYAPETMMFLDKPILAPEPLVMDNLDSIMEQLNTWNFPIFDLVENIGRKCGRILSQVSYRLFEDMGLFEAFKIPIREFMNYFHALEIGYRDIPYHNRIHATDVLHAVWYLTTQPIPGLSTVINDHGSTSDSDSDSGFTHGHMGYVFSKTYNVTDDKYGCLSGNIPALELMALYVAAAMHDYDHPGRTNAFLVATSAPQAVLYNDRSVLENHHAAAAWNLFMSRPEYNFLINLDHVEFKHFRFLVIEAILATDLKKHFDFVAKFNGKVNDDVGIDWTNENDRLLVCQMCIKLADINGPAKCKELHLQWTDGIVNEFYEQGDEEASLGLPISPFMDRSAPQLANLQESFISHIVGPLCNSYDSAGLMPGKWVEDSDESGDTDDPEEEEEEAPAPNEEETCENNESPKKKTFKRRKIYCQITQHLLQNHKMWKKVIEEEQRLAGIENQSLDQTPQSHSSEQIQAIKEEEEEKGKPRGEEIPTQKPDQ

Thromboxane A2 receptor = molecular target: T3, Thromboxane A2 receptor (Homo sapiens, UniProt P21731); assay type: functional, cell-based
T3 sequence (P21731 whole entry): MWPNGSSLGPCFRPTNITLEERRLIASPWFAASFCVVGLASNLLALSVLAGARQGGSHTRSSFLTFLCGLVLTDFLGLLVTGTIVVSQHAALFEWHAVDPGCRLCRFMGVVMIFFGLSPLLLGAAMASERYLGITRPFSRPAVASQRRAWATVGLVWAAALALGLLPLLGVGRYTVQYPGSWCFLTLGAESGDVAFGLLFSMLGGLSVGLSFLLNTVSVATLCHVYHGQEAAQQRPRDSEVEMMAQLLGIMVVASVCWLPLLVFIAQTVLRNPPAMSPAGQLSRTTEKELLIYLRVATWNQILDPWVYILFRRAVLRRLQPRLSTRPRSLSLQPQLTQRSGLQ

[4] = molecular target: Sodium-dependent noradrenaline transporter (Homo sapiens, UniProt P23975)
Chain of Sodium-dependent noradrenaline transporter (P23975 whole entry): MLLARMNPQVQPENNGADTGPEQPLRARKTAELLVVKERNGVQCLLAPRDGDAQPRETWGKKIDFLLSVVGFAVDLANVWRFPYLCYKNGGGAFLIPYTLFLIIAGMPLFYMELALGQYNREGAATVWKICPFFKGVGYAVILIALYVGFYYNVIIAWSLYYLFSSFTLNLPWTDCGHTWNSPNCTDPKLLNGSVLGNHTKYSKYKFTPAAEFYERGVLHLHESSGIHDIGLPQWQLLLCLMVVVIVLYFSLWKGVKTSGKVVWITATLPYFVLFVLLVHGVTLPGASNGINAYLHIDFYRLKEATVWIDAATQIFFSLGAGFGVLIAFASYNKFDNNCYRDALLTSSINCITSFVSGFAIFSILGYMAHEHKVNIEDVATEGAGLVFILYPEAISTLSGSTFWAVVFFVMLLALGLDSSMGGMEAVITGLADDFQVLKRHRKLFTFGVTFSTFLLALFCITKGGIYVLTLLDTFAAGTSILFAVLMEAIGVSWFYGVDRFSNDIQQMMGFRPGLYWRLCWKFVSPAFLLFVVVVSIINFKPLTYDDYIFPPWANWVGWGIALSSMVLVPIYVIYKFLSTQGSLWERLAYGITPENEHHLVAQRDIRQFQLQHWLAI

Estrogen receptor = molecular target: T4, Estrogen receptor (Homo sapiens, UniProt P03372)
T4 sequence (P03372 whole entry): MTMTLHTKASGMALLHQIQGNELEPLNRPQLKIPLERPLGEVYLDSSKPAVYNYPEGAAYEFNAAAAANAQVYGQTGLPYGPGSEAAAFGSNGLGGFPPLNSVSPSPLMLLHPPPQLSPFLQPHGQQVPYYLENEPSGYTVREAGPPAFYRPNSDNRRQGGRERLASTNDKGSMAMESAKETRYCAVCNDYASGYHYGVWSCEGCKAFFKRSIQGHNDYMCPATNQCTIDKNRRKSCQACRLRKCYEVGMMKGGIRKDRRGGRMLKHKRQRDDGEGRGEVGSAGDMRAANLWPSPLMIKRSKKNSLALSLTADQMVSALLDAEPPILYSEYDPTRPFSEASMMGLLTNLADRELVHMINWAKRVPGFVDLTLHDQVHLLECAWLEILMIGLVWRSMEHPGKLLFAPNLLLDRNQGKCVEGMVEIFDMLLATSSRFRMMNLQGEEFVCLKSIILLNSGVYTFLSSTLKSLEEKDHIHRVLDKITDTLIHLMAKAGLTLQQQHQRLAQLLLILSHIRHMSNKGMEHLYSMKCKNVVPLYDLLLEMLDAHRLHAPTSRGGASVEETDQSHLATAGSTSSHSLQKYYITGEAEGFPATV

[5] = molecular target: T5, 5-hydroxytryptamine receptor 1A (Homo sapiens, UniProt P08908)
T5 sequence (P08908 whole entry): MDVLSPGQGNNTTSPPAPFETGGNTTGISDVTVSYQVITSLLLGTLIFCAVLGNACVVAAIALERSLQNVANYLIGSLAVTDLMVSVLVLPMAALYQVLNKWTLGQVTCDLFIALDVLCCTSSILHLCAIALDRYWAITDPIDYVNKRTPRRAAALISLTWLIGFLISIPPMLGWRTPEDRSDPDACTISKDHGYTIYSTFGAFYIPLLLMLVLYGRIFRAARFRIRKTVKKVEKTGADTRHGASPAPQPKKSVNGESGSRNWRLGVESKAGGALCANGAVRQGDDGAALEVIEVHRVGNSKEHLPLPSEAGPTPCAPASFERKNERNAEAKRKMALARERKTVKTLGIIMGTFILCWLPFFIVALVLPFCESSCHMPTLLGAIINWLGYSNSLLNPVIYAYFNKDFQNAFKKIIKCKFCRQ

[6] = molecular target: 3',5'-cyclic-AMP phosphodiesterase 4A (Homo sapiens, UniProt P27815); assay type: functional
Chain of 3',5'-cyclic-AMP phosphodiesterase 4A (P27815 whole entry): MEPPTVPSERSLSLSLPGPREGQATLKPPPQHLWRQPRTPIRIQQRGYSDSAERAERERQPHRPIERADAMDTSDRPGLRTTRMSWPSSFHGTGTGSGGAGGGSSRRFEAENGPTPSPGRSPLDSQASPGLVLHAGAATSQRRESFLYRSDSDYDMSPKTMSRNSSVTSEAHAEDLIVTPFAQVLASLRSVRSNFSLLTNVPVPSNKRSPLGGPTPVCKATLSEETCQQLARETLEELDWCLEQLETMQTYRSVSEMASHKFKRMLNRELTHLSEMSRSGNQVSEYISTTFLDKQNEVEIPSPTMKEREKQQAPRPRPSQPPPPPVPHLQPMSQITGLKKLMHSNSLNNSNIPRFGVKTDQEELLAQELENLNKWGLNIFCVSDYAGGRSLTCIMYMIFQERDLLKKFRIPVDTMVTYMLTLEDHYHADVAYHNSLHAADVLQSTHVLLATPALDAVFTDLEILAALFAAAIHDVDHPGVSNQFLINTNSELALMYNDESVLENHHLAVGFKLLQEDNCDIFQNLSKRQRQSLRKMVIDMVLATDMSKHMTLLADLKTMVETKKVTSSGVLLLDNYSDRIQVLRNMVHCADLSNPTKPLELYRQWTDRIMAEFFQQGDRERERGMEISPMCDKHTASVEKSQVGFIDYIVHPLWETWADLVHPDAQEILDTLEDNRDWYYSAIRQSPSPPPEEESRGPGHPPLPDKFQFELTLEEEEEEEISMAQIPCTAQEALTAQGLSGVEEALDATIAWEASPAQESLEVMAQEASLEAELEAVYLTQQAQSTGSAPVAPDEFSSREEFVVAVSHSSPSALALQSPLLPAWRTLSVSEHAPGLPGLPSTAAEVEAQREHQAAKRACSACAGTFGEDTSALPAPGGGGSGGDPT

[7] = molecular target: 5-hydroxytryptamine receptor 2B (Homo sapiens, UniProt P41595); assay type: functional, cell-based
[8] = molecular target: T6, Prostaglandin G/H synthase 1 (Homo sapiens, UniProt P23219); assay type: functional
T6 sequence (P23219 whole entry): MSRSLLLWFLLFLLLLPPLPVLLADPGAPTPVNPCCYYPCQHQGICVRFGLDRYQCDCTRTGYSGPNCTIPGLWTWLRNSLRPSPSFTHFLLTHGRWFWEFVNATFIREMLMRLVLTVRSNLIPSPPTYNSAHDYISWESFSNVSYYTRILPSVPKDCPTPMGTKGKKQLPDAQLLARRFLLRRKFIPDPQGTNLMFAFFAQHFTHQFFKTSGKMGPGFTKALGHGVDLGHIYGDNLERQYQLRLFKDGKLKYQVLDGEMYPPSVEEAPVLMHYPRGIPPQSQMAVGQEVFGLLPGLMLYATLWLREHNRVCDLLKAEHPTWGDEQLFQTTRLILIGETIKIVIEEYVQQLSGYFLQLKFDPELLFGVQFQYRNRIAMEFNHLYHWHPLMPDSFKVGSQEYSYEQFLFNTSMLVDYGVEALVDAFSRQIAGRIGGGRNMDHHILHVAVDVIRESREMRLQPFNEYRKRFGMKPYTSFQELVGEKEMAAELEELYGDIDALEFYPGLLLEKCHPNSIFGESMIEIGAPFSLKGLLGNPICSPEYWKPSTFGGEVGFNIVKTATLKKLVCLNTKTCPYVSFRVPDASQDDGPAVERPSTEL

[9] = molecular target: T7, Muscarinic acetylcholine receptor M2 (Homo sapiens, UniProt P08172)
T7 sequence (P08172 whole entry): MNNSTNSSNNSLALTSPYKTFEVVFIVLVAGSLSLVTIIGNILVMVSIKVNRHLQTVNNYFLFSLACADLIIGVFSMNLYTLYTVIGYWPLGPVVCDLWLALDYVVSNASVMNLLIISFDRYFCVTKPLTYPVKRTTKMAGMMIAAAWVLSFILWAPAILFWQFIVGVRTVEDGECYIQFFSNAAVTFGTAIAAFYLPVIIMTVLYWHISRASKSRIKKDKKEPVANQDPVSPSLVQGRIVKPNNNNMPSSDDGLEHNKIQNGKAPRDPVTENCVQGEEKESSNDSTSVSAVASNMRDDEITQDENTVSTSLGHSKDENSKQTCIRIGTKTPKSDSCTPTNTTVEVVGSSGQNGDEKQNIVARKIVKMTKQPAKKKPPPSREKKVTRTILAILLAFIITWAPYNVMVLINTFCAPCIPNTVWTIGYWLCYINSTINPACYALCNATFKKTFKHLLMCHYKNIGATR

[10] = molecular target: T6, Prostaglandin G/H synthase 1; assay type: functional; remark: listed apart in the source
Histamine H3 receptor = Histamine H3 receptor (Homo sapiens, UniProt Q9Y5N1)
Chain of Histamine H3 receptor (Q9Y5N1 whole entry): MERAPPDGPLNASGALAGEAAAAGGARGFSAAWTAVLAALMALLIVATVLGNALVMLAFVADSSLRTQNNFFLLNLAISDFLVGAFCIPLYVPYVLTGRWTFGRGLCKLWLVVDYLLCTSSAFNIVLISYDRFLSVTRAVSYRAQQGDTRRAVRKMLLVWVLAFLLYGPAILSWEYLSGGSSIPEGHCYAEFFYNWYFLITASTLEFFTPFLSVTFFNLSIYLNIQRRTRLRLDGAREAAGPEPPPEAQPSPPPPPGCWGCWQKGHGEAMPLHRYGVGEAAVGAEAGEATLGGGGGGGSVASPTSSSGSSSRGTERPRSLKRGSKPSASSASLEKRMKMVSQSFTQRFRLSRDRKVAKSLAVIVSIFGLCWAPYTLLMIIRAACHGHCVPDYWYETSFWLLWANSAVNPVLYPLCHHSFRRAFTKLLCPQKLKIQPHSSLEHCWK

[11] = molecular target: Sodium-dependent dopamine transporter (Homo sapiens, UniProt Q01959)
Chain of Sodium-dependent dopamine transporter (Q01959 whole entry): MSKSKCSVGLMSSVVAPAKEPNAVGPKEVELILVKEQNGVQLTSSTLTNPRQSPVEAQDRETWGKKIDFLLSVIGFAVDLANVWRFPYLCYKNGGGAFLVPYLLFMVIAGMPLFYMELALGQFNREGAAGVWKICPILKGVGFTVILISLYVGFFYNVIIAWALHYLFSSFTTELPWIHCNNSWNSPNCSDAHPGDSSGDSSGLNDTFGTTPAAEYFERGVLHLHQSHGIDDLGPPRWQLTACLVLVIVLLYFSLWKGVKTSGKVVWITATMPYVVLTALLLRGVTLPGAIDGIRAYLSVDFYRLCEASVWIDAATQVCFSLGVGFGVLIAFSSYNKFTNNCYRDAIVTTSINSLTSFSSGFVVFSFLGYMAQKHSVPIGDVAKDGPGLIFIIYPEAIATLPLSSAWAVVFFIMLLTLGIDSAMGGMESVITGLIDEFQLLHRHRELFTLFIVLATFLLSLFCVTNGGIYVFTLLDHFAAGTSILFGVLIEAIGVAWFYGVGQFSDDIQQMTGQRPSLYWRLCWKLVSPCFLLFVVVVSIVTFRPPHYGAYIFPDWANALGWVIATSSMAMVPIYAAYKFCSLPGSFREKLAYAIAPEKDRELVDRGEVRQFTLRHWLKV

D(1A) dopamine receptor [12] = molecular target: T2, D(1A) dopamine receptor
Further: assay procedure not described here.

Row | Molecule | AC50 [1] [µM] | AC50 (D(1A) dopamine receptor [2]) [µM] | AC50 [3] [µM] | AC50 (Thromboxane A2 receptor) [µM] | AC50 [4] [µM] | AC50 (Estrogen receptor) [µM] | AC50 [5] [µM] | AC50 [6] [µM] | AC50 [7] [µM] | AC50 [8] [µM] | AC50 [9] [µM] | AC50 [10] [µM] | AC50 (Histamine H3 receptor) [µM] | AC50 [11] [µM] | AC50 (D(1A) dopamine receptor [12]) [µM]
1 | CC(C)c1c(C(=O)Nc2ccccc2)c(-c2ccccc2)c(-c2ccc(F)cc2)n1CC[C@@H](O)C[C@@H](O)CC(=O)O [ATORVASTATIN] | > 30 | – | – | – | – | – | – | – | – | – | – | – | – | – | –
2 | CC(C)(Oc1ccc(C2CC2(Cl)Cl)cc1)C(=O)O (stereo not given) [CIPROFIBRATE] | > 30 | – | – | – | – | – | – | – | – | – | – | – | – | – | –
3 | CCN1CCC[C@H]1CNC(=O)c1cc(S(N)(=O)=O)ccc1OC [LEVOSULPIRIDE] | – | > 30 | – | – | – | – | – | – | – | – | – | – | – | – | –
4 | CCCCCCC(C)(C)c1cc(O)c2c(c1)OC(C)(C)C1CCC(=O)CC21 (stereo not given) [NABILONE] | – | > 30 | – | – | – | – | – | – | – | – | – | – | – | – | –
5 | Nc1nc2ccc(OC(F)(F)F)cc2s1 [RILUZOLE] | – | – | > 30 | > 30 | 2.59 | > 30 | > 30 | > 30 | > 30 | > 30 | > 30 | > 30 | > 30 | 18.7 | > 30
6 | BIVALIRUDIN | – | – | > 30 | > 30 | > 30 | > 30 | > 30 | > 30 | > 30 | > 30 | > 30 | > 30 | > 30 | > 30 | > 30
